Laboratory results published in patent publication US20240325553A1, “CYTOSTATIC CONJUGATES WITH INTEGRIN LIGANDS” (priority 2018, published 2024).
Like-named read-outs stand apart in the source and are kept apart here.

Assays:
[1] = Stability in human plasma; format: in vitro ADME; conditions: 37° C.
Method: 1 mg of the test compound was solved in 0.5 ml acetonitrile/dimethylsulfoxide 1:1. For complete dissolution the HPLC vial was shaken and sonicated. While vortexing 20 μl of this solution were added to 1 ml 37° C. warm plasma. After 0.17, 0.5, 1, 1.5, 2 and 4 hours the enzymatic reaction was stopped by adding 100 μl of the compound plasma solution to a vial containing 300 μl acetonitrile/buffer pH3 (80:20) at RT. The mixture was centrifuged at 5000 rpm for 10 minutes. The supernatant was analyzed by HPLC to determine the amount of the test compound and up to two byproducts. t(0) values result from a processed sample immediately taken after vortexing with plasma at RT. The peak areas (in percentage) were used for quantification.

[2] = system: NCI-H1975; test: Cytotoxicity in vitro against NCI-H1975; format: cell-based
Description: (§1) The cytotoxic activity of 7-Ethyl camptothecin is not negatively affected when tumor cells NCI-H1975 was transfected with drug transporters p-Glycoprotein (P-gp) and breast cancer resistant protein (BCRP) which is in strong contrast to SN38.

[3] = Pharmacokinetics: tumor and plasma levels in 786-O tumor bearing mice; format: in vivo, NMRI nu/nu mice; conditions: for Tumor/Plasma enrichment factor (ratio/ratio): relative to direct administration of 7-ethyl camptothecin
Method: (§2) Tumor and plasma samples were collected at different time points and the levels of intact conjugate and of the toxophore 7-ethyl-camptothecin cleaved from the conjugate were determined.
For comparison, 1 mg/kg of 7-ethyl camptothecin was dissolved in a mixture of 5% aqueous dextrose/solutol/DMSO 85/10/5 and administered iv to female. 786-O tumor bearing NMRI nu/nu mice. Again tumor and plasma samples were collected at different time points and the levels of 7-ethyl-camptothecin were determined.
as §2

[4] = system: BCRP; test: Cytotoxicity in vitro against NCI-H1975 transfected with BCRP; format: cell-based; conditions: human
Description: as §1

[5] = Caco-2 flux assay for cellular permeability; format: in vitro ADME; conditions: human
Method: (§3) The cell permeability of a substance can be investigated by means of in vitro testing in a flux assay using Caco-2 cells [M. D. Troutman and D. R. Thakker, Pharm. Res. 20 (8), 1210-1224 (2003)]. For this purpose. the cells were cultured for 15-16 days on 24-well filter plates. […] The samples were separated by HPLC (Agilent 1200. Böblingen. Germany) using reverse phase columns. […] 1716-1725 (2003)]. A substance was classified as actively transported when the ratio of Papp (B-A) to Papp (A-B) (efflux ratio) was >2 or <0.5.

[6] = target: P-gp (ABCB1) (Homo sapiens, UniProt P08183); test: in vitro
Method: Many tumor cells express transporter proteins for drugs, and this frequently accompanies the development of resistance towards cytostatics.
The substrate properties of a substance for P-gp (ABCB1) were determined by means of a flux assay using LLC-PK1 cells which overexpress P-gp (L-MDR1 cells) [A. H. Schinkel et al., J. Clin. Invest. 96. 1698-1705 (1995)]. For this purpose. the LLC-PK1 cells or L-MDR1 cells were cultured on 96-well filter plates for 3-4 days. For determination of the permeation, the respective test substance, alone or in the presence of an inhibitor (such as ivermectin or verapamil, for example), was applied in a HEPES buffer to the cells either apically (A) or basally (B) and incubated for 2 hours. After ([…] and after 2 hours, samples were taken from the cis and trans compartments. The samples were separated by HPLC using reverse phase columns. The HPLC system was coupled via a Turbo Ion Spray Interface to a Triple Quadropol mass spectrometer API 3000 (Applied Biosystems Applera, Darmstadt, Germany). The permeability was evaluated on the basis of a Papp value, which was calculated using the formula published by Schwab et al. [D. Schwab et al. . . . J. Med. Chem. 46, 1716-1725 (2003)]. A substance was classified as P-gp substrate when the efflux ratio of Papp (B-A) to Papp (A-B) was >2.

[7] = system: P-gp; test: Cytotoxicity in vitro against NCI-H1975 transfected with P-gp; format: cell-based; conditions: human
Description: as §1

[8] = system: NCI-H1975-BCRP; test: Cytotoxicity in vitro against NCI-H1975 transfected with BCRP; format: cell-based
Description: as §1

[9] = system: Caco-2 cells; test: Caco-2 flux assay for cellular permeability; format: in vitro ADME
Method: as §3

[10] = system: NCI-H1975-P-gp; test: Cytotoxicity in vitro against NCI-H1975 transfected with P-gp; format: cell-based
Description: as §1

[11] = system: HT29 cell line; test: Cytotoxicity in vitro (MTT) in the presence and absence of elastase, HT29; format: cell-based; conditions: 72 h
Method: (§4) Cultivation of cells was performed according to standard procedures with the media recommended by the provider. The cells in a total volume of 100 μL were seeded in a 96-well plate with white bottom (#3610). After a 24 h incubation period at 37° C. and 5% CO2, the medium was changed by adding 90 μL fresh medium. The treatment starts by adding the test compound to the cells in 10 μl of culture medium. Concentrations from 10^−5 M to 10^−13 M in triplicates were chosen followed by an incubation at 37° C. and 5% carbon dioxide. One set of samples were only treated with the test compound whereas to an otherwise identically treated second set of samples also 10 nM elastase was pipetted. After 72 h. the proliferation is detected using the MTT assay (ATCC). At the end of the incubation period the MTT reagent is added to all samples for 4 h, followed by lysis of the cells overnight by addition of the detergent. The dye formed was detected at 570 nm. The proliferation of cells which were not treated with test substance but were otherwise identically treated was defined as the 100% value. (FIG. 1 and table 4).

[12] = target: T1, αvβ3 receptor (Homo sapiens, UniProt P05106+P06756); test: αvβ3 binding test (echistatin SPA)
T1 construct: αvβ3 from human A375 cells was purified analogously to a procedure described by Wong et al; endogenous in cells; host or cells: human A375 cells (receptor purified from the cells)
Method: αvβ3 from human A375 cells was purified analogously to a procedure described by Wong et al. in Molecular Pharmacology 50, 529-537 (1996). In each case, 10 μL of αvβ3 (5 ng) in TBS PH 7.6, 2 mM CaCl2. 1 mM MgCl2. 1% n-octylglucopyranoside (Sigma): 10 μL of test substance in TBS pH 7.6. 0.1% DMSO and 45 μL of TBS pH 7.6. 2 mM CaCl2, 1 mM MgCl2, 1 mM MnCl2 were incubated at room temperature for 1 h. In each case, 25 μL of WGA SPA beads (Amersham, 4 mg/ml) and 10 μL of echistatin (0.1 μCi, Amersham, chloramine-T labelled) were then added. After 16 h at room temperature, the samples were measured in a scintillation measuring apparatus (Wallac 1450).

[13] = system: 786-O cell line; test: Cytotoxicity in vitro (MTT) in the presence and absence of elastase, 786-O; format: cell-based; conditions: 72 h, MTT
Method: as §4

[14] = Caco-2, Papp (B-A) to Papp (A-B)

P-gp (ABCB1), sequence (P08183 whole entry): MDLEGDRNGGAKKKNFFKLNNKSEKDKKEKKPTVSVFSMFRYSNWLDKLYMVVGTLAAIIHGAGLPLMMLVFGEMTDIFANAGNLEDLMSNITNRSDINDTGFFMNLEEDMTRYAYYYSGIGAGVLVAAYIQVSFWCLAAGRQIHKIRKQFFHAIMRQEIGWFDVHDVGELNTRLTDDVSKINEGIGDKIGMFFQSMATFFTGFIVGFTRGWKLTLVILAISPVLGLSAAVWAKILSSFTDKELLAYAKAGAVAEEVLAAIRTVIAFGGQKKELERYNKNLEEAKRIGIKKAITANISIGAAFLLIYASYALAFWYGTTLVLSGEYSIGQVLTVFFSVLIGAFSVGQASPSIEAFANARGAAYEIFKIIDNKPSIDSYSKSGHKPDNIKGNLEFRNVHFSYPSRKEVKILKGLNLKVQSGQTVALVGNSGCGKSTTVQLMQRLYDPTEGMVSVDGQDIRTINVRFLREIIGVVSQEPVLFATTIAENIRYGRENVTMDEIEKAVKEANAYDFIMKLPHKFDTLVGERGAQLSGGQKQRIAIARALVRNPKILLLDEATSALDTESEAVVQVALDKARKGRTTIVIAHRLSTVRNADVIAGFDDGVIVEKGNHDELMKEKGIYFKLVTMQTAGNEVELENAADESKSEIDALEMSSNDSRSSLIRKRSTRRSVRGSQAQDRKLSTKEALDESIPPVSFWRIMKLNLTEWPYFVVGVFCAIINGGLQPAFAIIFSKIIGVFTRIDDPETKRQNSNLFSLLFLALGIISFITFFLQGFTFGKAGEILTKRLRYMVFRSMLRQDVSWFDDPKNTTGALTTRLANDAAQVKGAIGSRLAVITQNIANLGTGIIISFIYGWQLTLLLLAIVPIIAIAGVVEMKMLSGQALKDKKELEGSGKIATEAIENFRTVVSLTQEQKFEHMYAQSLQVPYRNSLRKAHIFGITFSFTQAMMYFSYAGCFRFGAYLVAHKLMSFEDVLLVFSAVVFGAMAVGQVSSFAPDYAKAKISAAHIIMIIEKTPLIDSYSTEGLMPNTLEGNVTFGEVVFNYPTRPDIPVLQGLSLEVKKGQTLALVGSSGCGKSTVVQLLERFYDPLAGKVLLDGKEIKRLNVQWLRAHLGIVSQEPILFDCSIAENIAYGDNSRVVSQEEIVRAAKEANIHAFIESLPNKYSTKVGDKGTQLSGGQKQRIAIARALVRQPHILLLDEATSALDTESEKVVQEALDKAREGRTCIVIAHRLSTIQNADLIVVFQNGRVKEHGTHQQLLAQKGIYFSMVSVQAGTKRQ
T1 sequence (P06756 31-889 limits assumed): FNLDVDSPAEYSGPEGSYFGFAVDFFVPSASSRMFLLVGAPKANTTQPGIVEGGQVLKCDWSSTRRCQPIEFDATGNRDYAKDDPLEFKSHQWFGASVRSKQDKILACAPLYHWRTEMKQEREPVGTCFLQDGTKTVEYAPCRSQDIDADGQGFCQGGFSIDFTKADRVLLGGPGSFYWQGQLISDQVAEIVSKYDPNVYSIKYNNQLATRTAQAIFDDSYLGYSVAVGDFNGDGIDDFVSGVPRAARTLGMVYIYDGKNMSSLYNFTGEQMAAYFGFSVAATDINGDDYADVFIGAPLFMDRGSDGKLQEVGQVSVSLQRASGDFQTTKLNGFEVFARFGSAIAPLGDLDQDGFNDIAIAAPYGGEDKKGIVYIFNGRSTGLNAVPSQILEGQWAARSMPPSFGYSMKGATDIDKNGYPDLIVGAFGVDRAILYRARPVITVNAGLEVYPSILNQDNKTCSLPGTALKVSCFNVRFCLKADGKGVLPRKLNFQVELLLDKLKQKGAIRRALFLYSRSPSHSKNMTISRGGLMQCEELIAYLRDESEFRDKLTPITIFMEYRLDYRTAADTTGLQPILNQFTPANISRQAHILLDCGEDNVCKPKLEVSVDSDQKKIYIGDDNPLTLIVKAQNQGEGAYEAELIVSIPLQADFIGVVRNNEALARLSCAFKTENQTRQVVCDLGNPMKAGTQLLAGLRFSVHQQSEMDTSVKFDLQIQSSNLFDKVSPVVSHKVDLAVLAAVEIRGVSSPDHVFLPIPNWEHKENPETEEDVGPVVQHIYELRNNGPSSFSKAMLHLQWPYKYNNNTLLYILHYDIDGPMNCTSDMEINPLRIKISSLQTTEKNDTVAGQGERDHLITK
T1 sequence (P06756 891-1048 partner limits assumed): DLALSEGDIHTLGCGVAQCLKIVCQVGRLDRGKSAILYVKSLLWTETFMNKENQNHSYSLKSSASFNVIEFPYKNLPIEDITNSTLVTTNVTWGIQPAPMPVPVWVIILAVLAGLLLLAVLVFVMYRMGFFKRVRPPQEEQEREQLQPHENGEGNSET
T1 sequence (P05106 27-788): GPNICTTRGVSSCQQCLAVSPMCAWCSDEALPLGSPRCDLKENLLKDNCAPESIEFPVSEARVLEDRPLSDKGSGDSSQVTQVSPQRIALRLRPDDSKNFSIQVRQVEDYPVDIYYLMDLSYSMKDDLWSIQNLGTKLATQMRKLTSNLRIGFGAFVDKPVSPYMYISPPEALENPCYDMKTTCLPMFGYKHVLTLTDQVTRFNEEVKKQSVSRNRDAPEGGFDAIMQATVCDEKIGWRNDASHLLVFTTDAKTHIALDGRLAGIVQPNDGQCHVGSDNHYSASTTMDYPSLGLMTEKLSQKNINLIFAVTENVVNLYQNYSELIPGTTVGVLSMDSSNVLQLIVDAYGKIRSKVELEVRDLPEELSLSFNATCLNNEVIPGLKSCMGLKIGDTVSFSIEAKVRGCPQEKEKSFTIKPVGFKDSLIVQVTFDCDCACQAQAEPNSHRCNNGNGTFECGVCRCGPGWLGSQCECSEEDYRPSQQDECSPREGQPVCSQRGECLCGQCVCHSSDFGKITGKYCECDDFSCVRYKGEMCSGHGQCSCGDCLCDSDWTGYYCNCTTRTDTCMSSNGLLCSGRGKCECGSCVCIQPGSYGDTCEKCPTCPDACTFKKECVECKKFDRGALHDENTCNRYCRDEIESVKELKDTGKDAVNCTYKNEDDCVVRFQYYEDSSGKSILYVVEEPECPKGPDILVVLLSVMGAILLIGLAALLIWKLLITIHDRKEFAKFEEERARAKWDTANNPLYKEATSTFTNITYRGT

In the case of `CC[C@@]1(O)C(=O)OCc2c1cc1n(c2=O)Cc2cc3ccccc3nc2-1` [camptothecin], the “extent of degradation in human plasma” value ([1]; 4 hours) is reported as “about 50%”.

For `CCc1c2c(nc3ccccc13)-c1cc3c(c(=O)n1C2)COC(=O)[C@]3(O)CC` [7-Ethyl-camptothecin, (4S)-4,11-diethyl-4-hydroxy-1H-pyrano[3′,4′:6,7]indolizino[1,2-b]quinoline-3,14(4 H,12H)-dione], the IC50 ([2]; Homo sapiens, NCI-H1975) was 19 nM, the Kp ([3]; mouse, tumor and plasma, 1 mg/kg, iv, female 786-O tumor bearing NMRI nu/nu mice, read-out: Tumor/Plasma ratio of 7-ethyl camptothecin) was 0.6 and the “Tumor/Plasma enrichment factor (ratio/ratio)” value [3] was 1. It also gave an IC50 [4] of 27 nM, a Papp A→B at 2 h ([5]; Caco-2, 2 hours incubation) of 17.1 ×10⁻⁶ cm/s and an efflux ratio at 2 h [5, 14] of 1. The Papp A→B at 2 h ([6]; pig, LLC-PK1) was 19.6 ×10⁻⁶ cm/s, the efflux ratio at 2 h ([6]; pig, LLC-PK1) was 0.6 and the IC50 [7] was 34 nM. The “stable in human plasma for” value [1] was “at least 4 hours”.

In the case of `CCc1c2c(nc3ccc(O)cc13)-c1cc3c(c(=O)n1C2)COC(=O)[C@]3(O)CC` [SN38], the IC50 [2] is reported as 45 nM, the IC50 [8] is reported as 512 nM and the “permeability Papp A->B” value ([9]; Caco-2, 2 hours incubation) is reported as 0.8 ×10⁻⁶ cm/s. The efflux ratio [9, 14] was 36, the efflux ratio ([9]; Caco-2, new data for SN38) was 9 and the “permeability Papp A->B” value ([9]; Caco-2, new data for SN38) was 2 ×10⁻⁶ cm/s. For the same compound, the “permeability Papp A->B” value ([6]; L-MDR1 cells (LLC-PK1 overexpressing P-gp)) was 1 ×10⁻⁶ cm/s, the efflux ratio ([6]; L-MDR1 cells, Papp (B-A) to Papp (A-B)) was 16 and the IC50 [10] was 141 nM.

With `CCCNC(=O)Nc1cccc(S(=O)(=O)Nc2cccc([C@H](CC(=O)[O-])NC(=O)Nc3ccc(NC(=O)NCCOCCOCCOCCC(=O)N[C@@H](CC(=O)[O-])C(=O)N4CCC[C@H]4C(=O)N[C@H](C(=O)O[C@]4(CC)C(=O)OCc5c4cc4n(c5=O)Cc5c-4nc4ccccc4c5CC)C(C)C)cc3)c2)c1.[Na+].[Na+]` [Example 2, disodium (4S)-4,11-diethyl-3,14-dioxo-3,4,12,14-tetrahydro-1H-pyrano[3′,4′: 6,7]indolizino [1,2-b]quinolin-4-yl 1-{(2S)-2-(carboxylatomethyl)-17-[4-({[(1S)-2-carboxylato-1-{3-[({3-[(propyl-carbamoyl)amino]phenyl}sulfonyl)amino]phenyl}ethyl]carbamoyl}amino)anilino]-4,17-dioxo-7,10,13-trioxa-3,16-diazaheptadecan-1-oyl}-L-prolyl-L-valinate] the “Tumor/Plasma enrichment factor (ratio/ratio)” value [3] was 2, the IC50 ([11]; 10 nM elastase, read-out: HT29 cell line IC50 w elastase) was 32 nM and the IC50 ([11]; without elastase, read-out: HT29 cell line IC50 w/o elastase) was over 500 nM. It also gave an IC50 [12] of 700 nM, an IC50 ([13]; 10 nM elastase, read-out: 786-O cell line IC50 w elastase) of 0.17 nM and an IC50 ([13]; without elastase, read-out: 786-O cell line IC50 w/o elastase) of 268 nM.
